# Laboratory results reported in patent publication USRE37781E1, “Substituted cyclic carbonyls and derivatives thereof useful as retroviral protease inhibitors” (DuPont Pharmaceuticals Company, priority 1991, dated 2002).
# Read-outs that look alike come from different tables or passages of the source.
# Assays:
# [1] = target: single-chain tethered dimer of HIV protease (Human immunodeficiency virus 1, UniProt P04585); assay: biochemical; format: biochemical; design: fused on or other part: A second copy of the same protease unit is joined to the first by a short peptide tether, giving one polypeptide
# Protocol: HIV Protease Inhibition Assay—HPLC Method
# Active protease was prepared as described therein by extraction with 67% acetic acid, dilution 33-fold with water, dialysis against water and then against a “refolding buffer” consisting of 20 mM MES, 1 mM dithiothreitol and 10% glycerol. Protease was stored as a stock preparation at 10 uM in refolding buffer.
# Substrate: Peptide of sequence: aminobenzoyl-Ala-Thr-His-Gln-Val-Tyr-Phe(NO2)-Val-Arg-Lys-Ala containing p-nitrophenylalanine, was prepared by solid phase synthesis as previously described Cheng et al., op.cit. Stock solutions of 2 mM substrate were prepared in DMSO.
# Inhibitory compounds were dissolved in sufficient DMSO to make 3 mM stock solutions. All further dilutions were prepared in “assay buffer”: 1M NaCl, 50 mM MES, pH 5.5, 1 mM EDTA, 1 mM DTT, […] glycerol.
# Enzyme reaction: In a 2 ml screw-cap centrifuge tube were added 50 ul protease (final concentration 0.25 nM) and 0.1 ml inhibitory compound (final concentration […]). After 15 min preincubation at room temperature, the reaction was started with the addition of 0.05 ml substrate (final concentration 5 uM). Incubation was carried out at 30 C. for 1 hr. The reaction was stopped with 1 ml 0.1M ammonium hydroxide.
# HPLC measurement of product formation: The product (aminobenzoyl-Ala-Thr-His-Gln-Val-Tyr) was separated from substrate on a Pharmacia MonoQ anion exchange column. The injection volume was 0.2 ml. The mobile phases were: A (20 mM trisHCl, pH 9.0, 0.02% sodium Azide, 10% acetonitrile), B (20 mM tris HCl, pH 9.0, 0.02% sodium azide, 0.5M ammonium formate, 10% acetonitrile). The mobile phases were pumped at 1 ml/min, with a gradient from 0 to 30% B in 5 min, 100% B for 4 min to wash the column, and a re-equilibration for 4 min. The retention time of the product was 3.6 min. Detection with a Shimadzu model RF535 fluorescence monitor was at 330 nm (excitation) and 430 (emission).
# HIV-1 (RF) in MT-2 cells = assay: microbe, parasite or virus in culture; format: cell-based
# Protocol: DNA Plasmids and in vitro RNA transcripts:
# Plasmid pDAB 72 containing both gag and pol sequences of BH10 (bp 113-1816) cloned into PTZ 19R was prepared according to Erickson-Viitanen et al. AIDS Research and Human Retroviruses 1989, 5, 577. The plasmid was linearized with Bam HI prior to the generation of in vitro RNA transcripts using the Riboprobe Gemini system II kit (Promega) with T7 RNA polymerase. Synthesized RNA was purified by treatment with RNase free DNAse (Promega), phenol-chloroform extraction, and ethanol precipitation. RNA transcripts were dissolved in water, and stored at −70° C. The concentration of RNA was determined from the A260.
# Biotinylated capture probes were purified by HPLC after synthesis on an Applied Biosystems (Foster City, Calif.) DNA synthesizer by addition of biotin to the 5′ terminal end of the oligonucleotide, using the biotin-phosphoramidite reagent of Cocuzza, Tet. Lett. 1989, 30, 6287. The gag biotinylated capture probe (5-biotin-[…] 3′) was complementary to nucleotides 889-912 of HXB2 and the pol biotinylated capture probe (5′-biotin-[…] 3′) was complementary to nucleotides 2374-2395 of HXB2. Alkaline phosphatase conjugated oligonucleotides used as reporter probes were prepared by Syngene (San Diego, Calif.). The pol reporter probe (5′ […] 3′) was complementary to nucleotides 2403-2425 of HXB2. The gag reporter probe (5′ […] 3′) was complementary to nucleotides 950-973 of HXB2. All nucleotide positions are those of the GenBank Genetic Sequence Data Bank as accessed through the Genetics Computer Group Sequence Analysis Software Package (Devereau Nucleic Acids Research 1984, 12, 387). The reporter probes were prepared as 0.5μM stocks in 2× SSC (0.3M NaCl, 0.03M sodium citrate), 0.05M Tris pH 8.8, 1 mg/mL BSA. The biotinylated capture probes were prepared as 10 μM stocks in water.
# Streptavidin coated plates:
# Nunc-immunomodule microtiter plate strips were coated by addition of 200 μL of streptavidin (30 ug/mL, Scripps, La Jolla, Calif.) in freshly prepared 10 mM sodium carbonate (pH 9.6). Plates were incubated overnight at 4° C. Streptavidin solution was aspirated from the wells and a blocking buffer composed of phosphate buffered saline (PBS), 20 mg/mL bovine serum albumin (crystalline, nuclease and protease free, Calbiochem) and 100 mg/mL lactose (Sigma) was added to the plates for 3 hrs at room temperature. Blocking buffer was removed from the wells, which were allowed to dry overnight at room temperature and subsequently stored at 4° C. in zip lock bags with desiccant. For the majority of the compound evaluation experiments, streptavidin coated plates were obtained from Du Pont Biotechnology Systems (Boston, Mass.).
# MT-2, CEM, and H9 cells were maintained in RPMI 1640 supplemented with 5% fetal calf serum (FCS), 2 mM L-glutamine and 50 μg/mL gentamycin, all from Gibco. Laboratory strains of HIV-1 (RF, MN and IIIB) were propagated in H9 cells in the same medium. Virus stocks were prepared approximately 1 month after acute infection of H9 cells by clarification of the tissue culture medium and storage of aliquots at −70° C. […] Each aliquot of virus stock used for infection was thawed only once. In some cases, infected H9 cells were shifted to Dulbecco's modified Eagle's medium 3-10 days before collection of virus in order to generate virus stocks in medium with low biotin content. Clinical isolates of HIV that had been passaged once in MT-2 cells were used to infect fresh MT-2 cells in RPMI medium. Three days after infection, cells were pelleted, resuspended and culture continued in Dulbecco's modified Eagle's medium as above. Virus stocks of clinical isolates were prepaid 10-15 days after infection when cytopathic effects were apparent in the culture.
# [2] = Table 2d, HIV protease inhibition, HPLC method, read-out: HPLC K1
# [3] = read-out: HPLC K1, Table 2d, class symbols
# [4] = Human immunodeficiency virus 1, MT2, 48 h, Table 2d, class symbols, read-out: IC90
# [5] = read-out: HPLC K1, Table 2d, HIV protease inhibition, HPLC method
# [6] = Human immunodeficiency virus 1, MT2, 48 h, Table 2d, HIV RNA assay, read-out: IC90
compound,measurement,setting,value
O=C1N(Cc2ccc3[nH]nnc3c2)C(Cc2ccccc2)C(O)C(O)C(Cc2ccccc2)N1Cc1ccc2[nH]nnc2c1 (stereo not shown) [15CT],Ki,[1]; [2],< 10 nM
same,IC90,"HIV-1 (RF) in MT-2 cells; Table 2d, HIV RNA assay",+++ (+++=<10 μg/mL)
CC(=O)CCCCN1C(=O)N(CCCCC(C)=O)C(Cc2ccccc2)C(O)C(O)C1Cc1ccccc1 (stereo not shown) [Example 15WB],Ki,[1]; [3],10 to 1000 nM
same,IC90,HIV-1 (RF) in MT-2 cells; [4],10 to 100 µg/mL
COCCCCCN1C(=O)N(CCCCCO)C(Cc2ccccc2)C(O)C(O)C1Cc1ccccc1 (stereo not shown) [Example 15VW],Ki,[1]; [3],< 10 nM
same,IC90,HIV-1 (RF) in MT-2 cells; [4],< 10 µg/mL
O=S1(=O)N(Cc2cccc(C=NO)c2)C(Cc2ccccc2)C(O)C(O)C(Cc2ccccc2)N1Cc1cccc(C=NO)c1 (stereo not shown) [23S],Ki,"[1]; Table 2m, read-out: HPLC Ki",< 10 nM
same,IC90,HIV-1 (RF) in MT-2 cells; Table 2m,+++ (+++=<10 μg/mL)
O=C1N(Cc2ccc(CO)cc2)C(Cc2ccccc2)C(O)C(O)C(Cc2ccccc2)N1Cc1cccnc1 (stereo not shown) [Example 15XE],Ki,[1]; [5],< 10 nM
same,IC90,HIV-1 (RF) in MT-2 cells; [6],< 10 µg/mL
CCCCN1C(=O)N(CCCC)C(Cc2ccccc2[N+](=O)[O-])C(O)C(O)C1Cc1ccc([N+](=O)[O-])cc1 (stereo not shown) [20C],Ki,"[1]; Table 2i, read-out: HPLC Ki",< 10 nM
same,IC90,HIV-1 (RF) in MT-2 cells; Table 2i,+++ (+++=<10 μg/mL)
Nc1n[nH]c2ccc(CN3C(=O)N(Cc4ccc5[nH]nc(N)c5c4)C(Cc4ccccc4)C(O)C(O)C3Cc3ccccc3)cc12 (stereo not shown) [15DF],Ki,[1]; [2],< 10 nM
same,IC90,"HIV-1 (RF) in MT-2 cells; Table 2d, HIV RNA assay",+++ (+++=<10 μg/mL)
NC(=O)COc1cccc(CN2C(=O)N(Cc3cccc(OCC(N)=O)c3)C(Cc3ccccc3)C(O)C(O)C2Cc2ccccc2)c1 (stereo not shown) [10H],Ki,"[1]; Table 2d, class symbols, read-out: HPLC K1",< 10 nM
same,IC90,"HIV-1 (RF) in MT-2 cells; Table 2d, class symbols",+++ (+++=<10 μg/mL)
O=C1N(Cc2ccccc2)C(Cc2ccccc2)C(O)C(O)C(Cc2ccccc2)N1CC1CC1CO (stereo not shown) [Example 12M],Ki,[1]; [3],< 10 nM
same,IC90,HIV-1 (RF) in MT-2 cells; [4],< 10 µg/mL
O=C1N(CC2CC2)C(CCc2ccccc2)[C@@H](O)[C@@H](Cc2ccccc2)N1CC1CC1 (stereo partly shown) [Example 8H],Ki,"[1]; read-out: Ki (HPLC), Table 1e, cells marked (HPLC)",< 10 nM
same,IC90,"HIV-1 (RF) in MT-2 cells; Human immunodeficiency virus 1, MT2, Table 1e, read-out: IC90",< 10 µg/mL
O=Cc1ccc(CN2C(=O)N(Cc3ccc(CO)cc3)C(Cc3ccccc3)C(O)C(O)C2Cc2ccccc2)cc1 (stereo not shown) [15XB],Ki,[1]; [5],< 10 nM
same,IC90,HIV-1 (RF) in MT-2 cells; [6],< 10 µg/mL
CN(C)Cc1nc(-c2cccc(CN3C(=O)N(Cc4cccc(-c5noc(CN(C)C)n5)c4)C(Cc4ccccc4)C(O)C(O)C3Cc3ccccc3)c2)no1.Cl.Cl (stereo not shown) [Example 15AO],Ki,[1]; [2],< 10 nM
same,IC90,"HIV-1 (RF) in MT-2 cells; Table 2d, HIV RNA assay",+++ (+++=<10 μg/mL)
NC(=O)c1cccc(CN2C(=O)N(Cc3cccc(C(N)=O)c3)C(Cc3ccccc3)C(O)C(O)C2Cc2ccccc2)c1 (stereo not shown) [10G],Ki,[1]; [3],< 10 nM
same,IC90,HIV-1 (RF) in MT-2 cells; [4],< 10 µg/mL
CCN(CC)C(=O)c1cccc(CN2C(=O)N(Cc3cccc(C(=O)OC)c3)C(Cc3ccccc3)C(O)C(O)C2Cc2ccccc2)c1 (stereo not shown) [11T],Ki,[1]; [3],< 10 nM
same,IC90,HIV-1 (RF) in MT-2 cells; [4],< 10 µg/mL
O=S1(=O)N(Cc2cccc(O)c2)C(Cc2ccccc2)C(O)C(O)C(Cc2ccccc2)N1Cc1cccc(O)c1 (stereo not shown) [Example 23D],Ki,"[1]; Table 2m, read-out: HPLC Ki",< 10 nM
same,IC90,HIV-1 (RF) in MT-2 cells; Table 2m,+++ (+++=<10 μg/mL)
Cl.O=C(OCc1ccc(CN2C(=O)N(Cc3ccc(COC(=O)c4cccc(CN5CCOCC5)c4)cc3)[C@H](Cc3ccccc3)[C@H](O)[C@@H](O)[C@H]2Cc2ccccc2)cc1)c1cccc(CN2CCOCC2)c1 [29S],Ki,"[1]; Table 2s, read-out: Ki (HPLC)",> 1000 nM
same,IC90,HIV-1 (RF) in MT-2 cells; Table 2s,+++ (+++=<10 μg/mL)
O=C1N(CCCCCO)C(Cc2ccccc2)C(O)C(O)C(Cc2ccccc2)N1Cc1cccc(CO)c1 (stereo not shown) [Example 15WE],Ki,[1]; [3],< 10 nM
same,IC90,HIV-1 (RF) in MT-2 cells; [4],< 10 µg/mL
